# Test results as given in patent US10889834B2, “Methods and compositions for enhancing targeted transgene integration” (Sangamo BioSciences, Inc., priority 2014, dated 2021).
# Tested on: Hepa1-6 cells
# Experiment: Factor IX production by ELISA in Hepa1-6 cells treated with topoisomerase inhibitor and FIX donor AAV (integration at albumin locus)
# Type: cell-based, mouse
# Settings: 0.5-5 uM inhibitor, FIX measured at days 4 and 7
# Method: For instance, one-hundred thousand Hepa1-6 cells were seeded per well of a 24-well dish and grown until 70% confluent in DMEM+10% FBS. […] Cells were then transfected with one of two Factor IX (FIX)-containing adeno-associated viruses (AAVs) donors (e.g., AAV2/6 vectors at 6e10 vg per sample) and Factor IX production on days 0-4 (day 4) and days 5-7 (day 7) assayed by ELISA.
# The FIX donor AAVs contain homology arms (complementary to the 3′ end of the mouse albumin gene) flanking an albumin 3′ intron splice acceptor-albumin 3′ exon-2A-Factor IX cassette. In one instance, the Factor IX cassette was positioned in the forward orientation (F), allowing Factor IX to be produced if the DNA was integrated into the Albumin locus through HDR by the use of the homology arms.
# Therefore, we determined the stimulation of Factor IX integration/expression that is specific to integration at the albumin gene in the proper orientation; this number is roughly equal to the Factor IX produced from the forward-orientation virus minus the Factor IX produced by the reverse-orientation virus.
compound,measurement,setting,value
CC[C@@]1(O)C(=O)OCc2c1cc1n(c2=O)Cc2cc3ccccc3nc2-1 [camptothecin],FIX protein (forward-orientation AAV donor),human FIX AAV donor in forward (F) orientation,dose-dependent increase in FIX protein
same,FIX protein (reverse-orientation AAV donor),human FIX AAV donor in reverse (R) orientation,generally not
